Here are results for eight molecules from patent publication US20060263895A1, “Method for monitoring the stereoselectivity and relative rate of organic chemical reactions” (priority 2005, published 2006).

Like-named read-outs stand apart in the source and are kept apart here.

Experiment [1] deals with T1, Lactobacillus kefir alcohol dehydrogenase (LKADH) (Lentilactobacillus kefiri, UniProt Q6WVP7).
T1 sequence (Q6WVP7 1-252): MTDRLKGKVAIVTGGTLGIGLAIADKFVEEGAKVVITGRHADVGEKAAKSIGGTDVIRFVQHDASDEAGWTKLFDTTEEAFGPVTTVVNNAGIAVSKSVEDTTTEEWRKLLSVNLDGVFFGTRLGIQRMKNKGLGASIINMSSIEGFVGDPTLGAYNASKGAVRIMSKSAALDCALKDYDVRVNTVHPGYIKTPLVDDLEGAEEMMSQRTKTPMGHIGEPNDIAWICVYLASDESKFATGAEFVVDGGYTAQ
The experiment can be described thus: LKADH oxidation of 1,2-hexenediol. Type of experiment: biochemical. From the text:
(§1) The following examples illustrate the invention with respect to an in situ enzymatic screening (ISES) method to predict the enantioselectivity of chiral catalysts for the hydrolytic kinetic resolution (HKR) of (±) hexene oxide. Above, it was shown that the method of the invention may be employed to predict the enantioselectivity and relative rate of a catalyst library for HKR of (±)-propylene oxide using horse liver alcohol dehydrogenase (HLADH) and Thermoalaerobium brockii alcohol dehydrogenase (TBADH).

The target of experiment [2] is T2, HLADH (Equus caballus, UniProt P00327).
T2 construct: purchased; host or cells: equine liver
T2 sequence (P00327 whole entry): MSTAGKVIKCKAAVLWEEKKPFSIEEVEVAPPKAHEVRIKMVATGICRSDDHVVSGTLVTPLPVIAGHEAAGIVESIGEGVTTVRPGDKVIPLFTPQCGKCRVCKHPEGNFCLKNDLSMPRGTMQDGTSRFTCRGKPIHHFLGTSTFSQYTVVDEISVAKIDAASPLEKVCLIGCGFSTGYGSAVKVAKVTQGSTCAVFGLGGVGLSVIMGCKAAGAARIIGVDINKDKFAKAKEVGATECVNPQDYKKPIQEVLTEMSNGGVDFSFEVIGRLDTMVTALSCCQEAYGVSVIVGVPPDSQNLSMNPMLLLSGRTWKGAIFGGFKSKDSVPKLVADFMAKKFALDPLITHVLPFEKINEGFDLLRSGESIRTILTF
The experiment can be described thus: HLADH oxidation of 1,2-hexenediol. Type of experiment: biochemical, horse.
Excerpt: as §1

A short description of experiment [3]: Double cuvette-ISES (in situ enzymatic screening) of Co(III)-salen mediated HKR of (±)-propylene oxide. Particulars: for % ee predicted double cuvet-ISES: bilayer; for % ee of the 1,2-propanediol product, as predicted by double-cuvette ISES (upper number): bilayer of pH 8.6 buffer over 7.2 M epoxide in CHCl3, 0.25 mol % catalyst, 15-35 min, + = (S), − = (R). In short, it runs like this:
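Co(III)-salen catalysts (0.25 mol %) in CHCl3 with (±)-propylene oxide (7.2 M in organic layer), overlaid with aqueous reporting layers in 50 mM sodium pyrophosphate, final pH 8.6. Reporters: 0.35 U HLADH/7.2 mM NAD+ ((S)-diol) or 0.35 U TBADH/2.2 mM NADP+ ((R)-diol). A340 increase gives enantioselectivity and relative rate estimates.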

A short description of experiment [4]: HKR of (±)-propylene oxide under standard neat 'Jacobsen conditions' (NMR conversion, chiral HPLC ee). Conditions: for NMR conv. (time): 3 h; for NMR conv. (time) / % ee (HPLC): loading 0.25 mol %; for % ee (HPLC) / % ee of the 1,2-propanediol product, as observed by chiral HPLC (lower number): + = (S), − = (R); for % ee of the 1,2-propanediol product, as observed by chiral HPLC (lower number): neat propylene oxide, 0.55 equiv. H2O, 0.25 mol % catalyst, 3 h reaction time. In short, it runs like this: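 Co(III)-salen catalyst (0.25 mol %) with neat (±)-propylene oxide and water (0.55 equiv.), added at 0° C., then stirred at room temperature, usually 3 h (longer if <5% conversion). Conversion by 1H NMR; diol isolated, derivatized to bis(p-bromobenzoate), ee by chiral HPLC.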

Experiment [5] in a line: Catalyst performance in the ISES cuvette (biphasic HKR), ee of isolated diol by chiral HPLC. Particulars: diol isolated from merged ISES cuvettes. As for the experimental part:
For several catalysts, control experiments were run to assess whether running the HKR under biphasic conditions influences the enantioselectivity of these Co(III)-salen HKR catalysts. In such cases, parallel duplicate ‘double-cuvette’ runs were chosen (i.e. two HLADH cuvettes and two TBADH cuvettes for a single catalyst). Following the ISES runs, the contents of all four reporting cuvettes were merged. Unreacted epoxide was rapidly removed under Ar stream. Following dilution with CH2Cl2 (˜50 mL), sodium sulfate was added to adsorb remaining water. The resulting organic solution was filtered and the filter cake washed with CH2Cl2 (2×20 mL). Following evaporation of the solvent, the crude diols were derivatized directly with p-bromobenzoyl imidazole to yield the 1,2-propanediol bis(pbromobenzoate) esters, which were then purified by silica gel chromatography to estimate diol yields. Enantiomeric excesses were determined using chiral HPLC, as before. […] Indeed, the ee's seen from diol isolated directly out of the cuvette generally appear slightly higher than those obtained under ‘Jacobsen conditions,’ probably reflecting the shorter reaction times employed in the ISES experiment.

Experiment [6] addresses T3, alcohol dehydrogenase from horse liver (HLADH) (Equus caballus, UniProt P00327).
T3 construct: purchased; host or cells: equine liver
Description: HLADH relative velocity (enantioselectivity) and Michaelis-Menten kinetics with 1,2-propanediol. Type of experiment: biochemical. Particulars: for Km / Vmax: HLADH; for Km: 7.2 mM NAD+, pH 8.8, 25° C.; for Vmax: 0.049 U. How it is done: 1. HLADH: The enantioselectivity of […] was estimated from the ratios of the initial velocities of (R)— vs. (S)-1,2-propanediol at fixed concentrations between 4.0 and 100 mM at 25° C. Each velocity measurement was made in duplicate. The assay cuvette contained the following: 7.2 mM NAD+ (33 μL from a 220 mM stock), 0.049 U of HLADH, and various concentrations of either the (R)— or (S)-enantiomer of 1,2-propanediol. In all cases, the final volume was adjusted to 1 mL using 50 mM sodium pyrophosphate buffer, pH 8.8.
(§2) Indeed, this was confirmed by the determination of Km's for each antipode of 1,2-propanediol for each enzyme. For each antipodal diol, the same data as were used to survey dehydrogenase enantioselectivity, as a function of diol concentration, were plotted in Michaelis-Menten fashion, as v0 vs. [S] (FIGS. 3 and 4). For each dehydrogenase, the data curve for (R)-1,2-propanediol is shown by -▪-, and those for the (S)-enantiomer by -●-. In all four cases, the data were processed by […], least squares fitting to a hyperbolic function. The resulting curve fits and best fit hyperbolic equations are presented above.

Experiment [7] deals with T4, alcohol dehydrogenase from Thermoanaerobium brockii (TBADH) (Thermoanaerobacter brockii, UniProt P14941).
T4 construct: purchased
T4 sequence (P14941 1-352): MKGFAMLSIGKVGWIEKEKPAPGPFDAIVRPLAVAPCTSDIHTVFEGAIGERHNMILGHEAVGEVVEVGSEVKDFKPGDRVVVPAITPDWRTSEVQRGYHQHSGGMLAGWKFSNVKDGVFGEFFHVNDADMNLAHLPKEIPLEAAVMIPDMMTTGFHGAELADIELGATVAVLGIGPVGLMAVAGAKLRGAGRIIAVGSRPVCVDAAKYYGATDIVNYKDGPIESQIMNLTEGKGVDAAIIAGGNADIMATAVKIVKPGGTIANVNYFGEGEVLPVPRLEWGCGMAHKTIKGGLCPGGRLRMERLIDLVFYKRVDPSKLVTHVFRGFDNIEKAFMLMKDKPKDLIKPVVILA
The experiment can be described thus: TBADH relative velocity (enantioselectivity) and Michaelis-Menten kinetics with 1,2-propanediol. Type of experiment: biochemical. Conditions: for Km / Vmax: TBADH; for Km: 2.2 mM NADP+, pH 8.8, 25° C.; for Vmax: 0.113 U. As for the experimental part:
2. TBADH: The enantioselectivity of […] was estimated from the ratios of the initial velocities of (R)— vs. (S)-1,2-propanediol at fixed concentrations between 3.0 and 80 mM at 25° C. Each velocity measurement was performed in triplicate. The assay cuvette contained the following: 2.2 mM NADP+ (10 μL from a 220 mM stock), 0.113 U of TBADH, and various concentrations of either (R) or (S)-enantiomer of 1,2-propanediol. In all cases, the final volume was adjusted to 1 mL using 50 mM sodium pyrophosphate buffer, pH 8.8.
as §2

The nature of experiment [8]: [total 1,2-propanediol] in aqueous ISES layer by 1H NMR. How it is done:
The concentration of 1,2-propanediol in the aqueous layer was estimated under typical ISES conditions using 1H NMR spectroscopy. The bilayer was prepared as usual for double cuvette-ISES (Section V), but for the substitution of D2O for H2O in the buffer, and the elimination of the dehydrogenase enzymes. After 15 min, the aqueous layer (300 μL of 500 μL total) was withdrawn and mixed with a fresh solution of imidazole of known concentration (also 300 μL in D2O), as an internal concentration standard. Accumulation of the 1H NMR spectrum, followed by integration and quantitation, provided an experimental measure of [total diol] in the aqueous reporting layer at t=15 minutes for the catalyst under investigation. The observed diol concentrations for ten catalysts examined in this way are collected in Table S6, below. These have been normalized to the value for the catalyst derived from salen 3b (arbitrarily assigned a rate of 1.0).

In experiment [9] the target is T4, alcohol dehydrogenase from Thermoanaerobium brockii (TBADH). Conditions: read-out: reported Km value for NADP+ with TBADH; cited from earlier work.
The mark [10] stands for this setting: reaction stopped at the time given (mostly 3 h).

T3 sequence (P00327 whole entry): as the sequence (P00327 whole entry) above

Regarding `CCCCC(O)CO` (centres unmarked), in experiment [1], the “selectivity of LKADH for the oxidation of 1,2-hexenediol” value was “high (S)-selectivity”. In addition, the “selectivity of HLADH for the oxidation of 1,2-hexenediol” value in experiment [2] is recorded as “modest (S)-selectivity”.

As to `CC(C)(C)c1cc(C=NC[C@H](Cc2cccc3ccccc23)N=Cc2cc(C(C)(C)C)cc(C(C)(C)C)c2O)c(O)c(C(C)(C)C)c1` [Salen 4a, N,N′-Bis(3′,5′-di-tert-butylsalicylidene)-(1S)-(α-naphthylmethyl)-1,2-ethylenediamine], in [3], the “% ee predicted double cuvet-ISES” value is given as 77 % ee and the “% ee of the 1,2-propanediol product, as predicted by double-cuvette ISES (upper number)” value is reported as “+77 % ee”. Moreover, in experiment [4], the “NMR conv. (time)” value is on record as 35 (3 h) %; the “% ee measured neat 'Jacobsen conditions'” value is listed as 76 % ee; the “% ee of the 1,2-propanediol product, as observed by chiral HPLC (lower number)” value (“% ee … (lower number)” for short) is recorded as “+76 % ee”. Further, the “% ee (HPLC)” value in experiment [4] (setting [10]) is listed as “+76 (S) % ee”. Besides, in experiment [5], the “% ee measured biphasic conds.” value is reported as 82 % ee.

For `CC(O)CO` (centres unmarked) [1,2-Propanediol], the “vS/vR of HLADH” value is 4.0 in experiment [6] (1,2-propanediol conc. 4 mM, 25° C.); 3.6 in experiment [6] (1,2-propanediol conc. 8 mM); 2.8 in [6] (1,2-propanediol conc. 12 mM); 2.4 in experiment [6] (1,2-propanediol conc. 16 mM); 2.7 in experiment [6] (1,2-propanediol conc. 20 mM); 2.8 in experiment [6] (1,2-propanediol conc. 30 mM). Besides, the results for the “vS/vR of HLADH” value in [6] (1,2-propanediol conc. 40 mM), in [6] (1,2-propanediol conc. 50 mM) and in [6] (1,2-propanediol conc. 100 mM) were 3.0, 2.7 and 2.6, respectively. Further, the “vR/vS of TBADH” value is recorded as 10.8 in experiment [7] (1,2-propanediol conc. 3 mM, 25° C.); 8.9 in [7] (1,2-propanediol conc. 6 mM); 9.9 in [7] (1,2-propanediol conc. 10 mM); 10.6 in [7] (1,2-propanediol conc. 20 mM); 9.1 in [7] (1,2-propanediol conc. 30 mM); 8.4 in experiment [7] (1,2-propanediol conc. 40 mM). Moreover, the “vR/vS of TBADH” value amounted to 9.0 in experiment [7] (1,2-propanediol conc. 50 mM), 9.1 in [7] (1,2-propanediol conc. 60 mM) and 8.6 in [7] (1,2-propanediol conc. 80 mM).

As for “N,N′-Bis(3′,5′-di-tert-butylsalicylidene[1R-(1α,2α,5α)]-2-amino-7,7-dimethyl-2-bicyclo[3.3.1]heptane-ethanamine [Salen 1a]”, in experiment [3], the “% ee predicted double cuvet-ISES” value is on record as 56 % ee and the “% ee of the 1,2-propanediol product, as predicted by double-cuvette ISES (upper number)” value is “+56 % ee”. Also, in [4], the “NMR conv. (time)” value is recorded as 12 (3 h) %; the “% ee measured neat 'Jacobsen conditions'” value is 72 % ee; the “% ee … (lower number)” value is given as “+72 % ee”. Further, the “% ee (HPLC)” value in [4] (setting [10]) is “+72 (S) % ee”. Also, the “[diol] (mM) @ 15 min” value in [8] (aqueous ISES layer, 1H NMR, t = 15 min) is on record as 19 mM. In [8] (normalized to the catalyst derived from salen 3b (rate 1.0)), this molecule came in with a Norm. of 0.20. The “% ee measured biphasic conds.” value in experiment [5] is reported as 87 % ee.

For orientation: Km means the substrate concentration at which the rate is half of its maximum. In the case of `C[C@@H](O)CO` [(R)-1,2-propanediol], in experiment [6], the Michaelis constant (Km) stood at 25 ± 2 mM and the Vmax is recorded as 355±9 mAbs min−1. For the same molecule, in [7], the “enantiomeric preference of TBADH” value is “significant preference”, the Km came to 17 ± 2 mM and the Vmax stood at 487±18 mAbs min−1.

`C[C@H](O)CO` [(S)-1,2-propanediol]: the Km in [6] was found to be 16 ± 1 mM; in [7], 23 ± 4 mM. Moreover, the Vmax in experiment [6] is reported as 819±20 mAbs min−1; in [7], 60±4 mAbs min−1.

With `CO[C@H]1[C@@H]2OC(C)(C)O[C@@H]2COC1(CN=Cc1cc(C(C)(C)C)cc(C(C)(C)C)c1O)N=Cc1cc(C(C)(C)C)cc(C(C)(C)C)c1O` (some centres unmarked) [Salen 7a, N,N′-Bis(3′,5′-di-tert-butylsalicylidene)-3-O-methyl-4,5-O-isopropylidene-1,2-dideoxy-Dfructopyranosyl-1,2-diamine], the “% ee predicted double cuvet-ISES” value in experiment [3] is −33 % ee. Also, in experiment [3] (listed as 7a*), the “% ee of the 1,2-propanediol product, as predicted by double-cuvette ISES (upper number)” value is given as −33 % ee. For the same molecule, in [4] (listed as 7a*), the “NMR conv. (time)” value is listed as 7 (3 h) % and the “% ee … (lower number)” value is reported as −59 % ee. Further, the “% ee (HPLC)” value in [4] (reaction stopped at the time printed in the row (mostly 3 h), listed as 7a*) is listed as −59 (R) % ee. Further, the “% ee measured neat 'Jacobsen conditions'” value in experiment [4] is listed as −59 % ee. The “% ee measured biphasic conds.” value in [5] is −55 % ee.

As for `NC(=O)c1ccc[n+]([C@@H]2O[C@H](COP(=O)([O-])OP(=O)(O)OC[C@H]3O[C@@H](n4cnc5c(N)ncnc54)[C@H](OP(=O)(O)O)[C@@H]3O)[C@@H](O)[C@H]2O)c1` [NADP+], in experiment [9], the Km was 0.013 mM.
